# Laboratory results from patent US20250332173A1, “COMPOUNDS AND METHODS FOR MODULATING NUCLEIC ACID SPLICING” (REMIX THERAPEUTICS INC., priority 2021, published 2025).
# Columns and labels:
# Type in all cases: cell-based, human
# Target C [1] = assay: RT-qPCR splicing assay panel, Target C canonical junction (CJ) mRNA; details: Homo sapiens; Table 5 panel; canonical junction qPCR; compound concentration having 50% response in CJ decrease; read-out: Target C IC50 (decrease in CJ mRNA levels)
# In short: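 Canonical exon-exon junction transcript levels measured by one-step RT-qPCR of cell lysates, normalized to a housekeeping gene (GAPDH, GUSB or PPIA). Cells used were A673 or K562, exposed for 24 h to compound in 11-point, 3-fold series from 10 uM, with final DMSO at or below 0.25%.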
# MYB = assay: HiBiT protein abundance assay, MYB HiBiT K562 cell line; details: HiBiT K562 cell line, 24 hours, top dose 10 μM; read-out: Effect on protein abundance, MYB (IC50 category)
# In short: (§1)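 Endogenous targets in K562 knock-in lines carried a HiBiT tag and were treated for 24 h at 37 °C with 10-point 3-fold dilutions (top 10 μM final, DMSO ≤0.25%). Abundance was read as lytic Nano-Glo HiBiT luminescence. IC50 came from a four-parameter logistic fit of normalized response.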
# HTT = assay: HiBiT protein abundance assay, HTT HiBiT K562 cell line; details: HiBiT K562 cell line, 24 hours, top dose 10 μM; read-out: Effect on protein abundance, HTT (IC50 category)
# In short: as §1
# Target C [2] = assay: HiBiT protein abundance assay, Target C (Promega Nano-Glo HiBiT Lytic Detection System, knock-in K562 cell line); details: Homo sapiens, K562, 24 h, HiBiT K562 cell line, 24 hours, top dose 10 μM; read-out: Effect on protein abundance, Target C (IC50 category)
# In short: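 HiBiT knock-in K562 cells (10,000/well) were treated for 24 h at 37 °C with a 10-point 3-fold dilution series, top final concentration 10 μM, DMSO ≤0.25%. Lytic HiBiT luminescence was read, normalized to unmodified K562 and DMSO-treated controls, and IC50 was interpolated from a four-parameter logistic fit.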
IC50 (Target C [1]) [nM],IC50 (MYB) [nM],IC50 (HTT) [nM],IC50 (Target C [2]) [nM],SMILES
> 10000,> 10000,> 10000,> 10000,"Cc1cn2cc(-c3cc(F)c4c(=O)n([C@H]5CNCC[C@@H]5O)cnc4c3)cc(F)c2n1 [Compound 348, 5-fluoro-7-{8-fluoro-2-methylimidazo[1,2-a]pyridin-6-yl}-3-[(3S,4S)-4-hydroxypiperidin-3-yl]quinazolin-4-one]"
1000 to 10000,100 to 1000,100 to 1000,1000 to 10000,"Cc1cn2cc(-c3cc(F)c4c(=O)n(C5CCCNCC5)cnc4c3)cc(F)c2n1 (stereo not shown) [Compound 353, 3-(azepan-4-yl)-5-fluoro-7-{8-fluoro-2-methylimidazo[1,2-a]pyridin-6-yl}quinazolin-4-one]"
> 10000,100 to 1000,1000 to 10000,> 10000,CCN1CCC(N2CCc3cc(-c4cc(C)c5nc(C)cn5n4)ccc3C2=O)CC1 [Compound 270]
100 to 1000,100 to 1000,< 100,100 to 1000,Cc1cn2nc(-c3ccc4c(=O)n([C@@H]5CCN[C@H](C)C5)ncc4c3)cc(C)c2n1 [Compound 272]
